Assay type in all cases: biochemical, mouse
For assay [1], the system named is monoclonal receptor P3 6D4. Kind of assay: Stoichiometric transacylation reaction of monoclonal receptor P3 6D4 with coumarin ester Compound 5 (fluorescence) and its inhibition/inactivation. A digest of the protocol:
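Antibody P3 6D4 (100 nM final) reacted at 23 °C with coumarin ester 5 in Tris-HCl or phosphate buffer (50 mM, pH 4–9), followed by fluorescence (ex 355/em 455 nm). Initial rates corrected for spontaneous hydrolysis; kinetic parameters from hyperbolic and double-reciprocal fits, Ki from Lineweaver-Burk with ≥5 inhibitor concentrations.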

Assay [2] has as its system anti-Compound 4i antibodies. Kind of assay: Fluorescence esterolytic assay of twelve anti-Compound 4i gamma-globulins with Compound 5. The conditions noted are these: two of twelve anti-Compound 4i antibodies, first 5 minutes of incubation. As for the experimental part:
A Perkin-Elmer LS-5 fluorescence spectrometer was operated at a fixed wavelength, using 355 nanometers (nm) for excitation and measuring the emission at 455 nm. A stock solution of the coumarin ester 5 was prepared in dioxane and was diluted to the desired concentrations in Tris-HCl (50 mM, pH 7) or sodium phosphate (50 mM, pH 4-9).
Reactions were run at 23 degrees C and were initiated by the addition of an aliquot of antibody solution (1 mg/ml) to substrate solutions to provide a final protein concentration of 100 nM. Final fluorescence values were determined by hydrolysis of the substrate with pig liver esterase. The observed reaction rate was corrected for spontaneous hydrolysis. Reaction kinetics were studied by measuring initial rates under pseudo-first order conditions. Active protein concentration was extrapolated from fluorescence values at the end of the reaction. The kinetic parameters were obtained by fitting the data to a hyperbolic curve and from double reciprocal plots. Inhibition constants were determined from the Lineweaver-Burk plot data with at least five inhibitor concentrations. […]
The fluorescence change upon hydrolysis of coumarin esters is easily detectable at nanomolar concentrations.
The practical range of pH for the assay is limited by the rapid spontaneous rate of hydrolysis of an ester Compound 5 above pH 8.0. […] Any change in fluorescence above background was noted. […]

For assay [3], the system named is P2 57G4. Kind of assay: Catalytic hydrolysis by receptor P2 57G4. As for the experimental part:
Two further catalytic monoclonal receptors were similarly prepared by another fusion using Compound 2i linked to an antigenic carrier as immunogen. Those two catalytic receptor molecules and their hybridomas were designated "P2 50D8" and "P2 57G4".
In one study, twenty-eight monoclonal anti-hapten antibodies to phosphonate 2i from two separate fusion experiments were assayed. […] Antibodies to Compound 4i as hapten were assayed in the same manner. Twelve gamma-globulins were screened as described above. Compound 5 is homologous only in the acyl portion of this larger hapten; however, all but three of these cross-reacted with smaller phosphonate 2 in an ELISA assay as described herein. For two of these there was observed a fluorescence change, occurring in the first 5 minutes of incubation, which corresponds to about 50 percent of that for complete hydrolysis. The background rate of hydrolysis was reestablished after this initial reaction leveled off.

Assay [4] concerns Monoclonal Receptor 22F5. Kind of assay: Kinetics of hydrolysis by receptor 22F5. From the text: Reaction kinetics were studied using three reactant ligands as substrates for monoclonal receptors 37G2 and 22F5. Data from initial rates were consistent with Michaelis-Menten reaction mechanism for a usual enzyme-substrate system. Initial rates were followed using at 271 nm using a U.V.-visible spectorphotometer for Compound 17, and a fluorescence spectrometer for Compounds 5 and 20, using an excitation wavelength of 355 nm and an emission wavelength of 455 nm for both compounds.
Lineweaver-Burke plots for the catalyzed hydrolysis of Compounds 17, 5 and 20 obtained in the presence and absence of Compound 12i as inhibitor were prepared as discussed for FIG. 4. In particular, Compound 17 was present at concentrations of 1-16 uM with inhibitor concentrations of 100 and 300 nanomolar (nM). Compound 5 was present at concentrations of 1-10 uM with inhibitor concentrations of 100 and 200 nM. Compound 20 was present at concentrations of 2-20 uM with inhibitor concentrations of 25 and 100 nM.
*Fluorescence assays using Compounds 20 and 5 were carried out in a
PerkinElmer fluorescence spectrophotometer (moded LS5; Oakbrook, IL) usin
200 nanomolar receptor (based on a molecular weight of 150,000 daltons) i
50 mM phosphate buffer at a pH value of 8.0. The reactant ligand was
dissolved in dioxane and admixed in the amounts discussed above. Two
milliliters of reaction solution were utilized as was a dioxane
concentration of 2 percent by volume. […]

Turning to `O=C(Cc1ccc(NC(=O)C(F)(F)F)cc1)Oc1ccc2ccc(=O)oc2c1` [Compound 5], the inactivation of receptor result in assay [1] was “specific inactivator”. The “stoichiometry, mole of ester per mole of combining sites” value in assay [1] (IgG molecular weight 150,000 assumed) was “one”. Besides, the “rate change pH 8.0 versus pH 7.0” value in assay [1] (preliminary) is recorded as “modest rate increase”. Moreover, the “fluorescence change as share of complete hydrolysis” value in assay [2] was “about 50%”. Further, in assay [3], the “catalytic hydrolysis by P2 57G4” value is “capable of catalytically hydrolyzing”. Also, the Km in assay [4] (50 mM phosphate pH 8.0, 200 nM receptor, 2% dioxane, figure = Km × 10^6) was determined as 1.4 µM. In addition, in assay [4] (pH 8.0), the kcat amounted to 0.0022 s⁻¹. For the same compound, the Vmax in assay [4] (pH 8.0, 200 nM receptor, figure = Vmax × 10^9) turned out to be 0.0912 µM/min.

These data come from patent US5126258A (priority 1988, dated 1992).
